From patent US5698522A, “6-position modified decapeptide LHRH antagonists” (Abbott Laboratories, priority 1995, dated 1997) come the findings set out here.

Each structure is given as a SMILES string. Where a SMILES comes first, the peptide text is derived from it. Side-chain parts run from the residue outwards. [ ]: non-standard residue; d: D form. The star is where a group is joined. Shikimoyl = O=C(C1=C[C@@H](O)[C@@H](O)[C@H](O)C1)*; Quinoline4carbonyl = O=C(c1ccnc2ccccc12)*; dPhe(4-Cl) = N[C@H](Cc1ccc(Cl)cc1)C(=O)O; d2Nal = N[C@H](Cc1ccc2ccccc2c1)C(=O)O; Lys(iPr) = CC(C)NCCCC[C@H](N)C(=O)O; NMeY = CN[C@@H](Cc1ccc(O)cc1)C(=O)O; d3Pal = N[C@H](Cc1cccnc1)C(=O)O; Nicotinoyl = O=C(c1cccnc1)*; Picolinoyl = O=C(c1ccccn1)*; dOrn = NCCC[C@@H](N)C(=O)O; 2Furoyl = O=C(c1ccco1)*; GABA = NCCCC(=O)O

The experiment concerns the target T1, LHRH receptor (Rattus norvegicus, UniProt P30969).
T1 construct: endogenous in cells
T1 sequence (P30969 1-327): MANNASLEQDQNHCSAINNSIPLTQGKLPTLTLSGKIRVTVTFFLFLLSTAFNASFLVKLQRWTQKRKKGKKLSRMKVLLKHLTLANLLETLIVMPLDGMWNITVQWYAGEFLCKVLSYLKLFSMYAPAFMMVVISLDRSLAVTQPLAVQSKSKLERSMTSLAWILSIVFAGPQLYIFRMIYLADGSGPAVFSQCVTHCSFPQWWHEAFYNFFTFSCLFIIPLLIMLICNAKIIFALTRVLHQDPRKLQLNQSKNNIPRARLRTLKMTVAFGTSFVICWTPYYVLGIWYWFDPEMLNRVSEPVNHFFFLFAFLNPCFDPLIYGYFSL
Description: in vitro LHRH antagonist potency (pA2) against the agonist leuprolide. It is filed as cell-based. The conditions noted are these: negative logarithm of the antagonist concentration which shifts the response curve produced by the agonist leuprolide to two-fold higher concentration. In outline:
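Functional antagonism against the agonist leuprolide. pA2 is the negative log of antagonist concentration that shifts the leuprolide response curve to twofold higher concentration.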
Regarding `CC(=O)N[C@H](Cc1ccc2ccccc2c1)C(=O)N[C@H](Cc1ccc(Cl)cc1)C(=O)N[C@H](Cc1cccnc1)C(=O)N[C@@H](CO)C(=O)N(C)[C@@H](Cc1ccc(O)cc1)C(=O)N[C@H](CCCCNC(=O)[C@@H](CO)NC(=O)c1cccnc1)C(=O)N[C@@H](CC(C)C)C(=O)N[C@@H](CCCCNC(C)C)C(=O)N1CCC[C@H]1C(=O)N[C@H](C)C(N)=O` [Example 4c, NAc-D2Nal^1 -D4ClPhe^2 -D3Pal^3 -Ser^4 -NMeTyr^5 -DLys[N-epsilon-DSer-Nicotinyl]^6 -Leu^7 -Lys(N-epsilon-Isopropyl)^8 -Pro^9 -DAla^10 NH2] (Ac-[d2Nal][dPhe(4-Cl)][d3Pal]S[NMeY][dK]([dS-Nicotinoyl])L[Lys(iPr)]P[dA]-NH2), the Kb (as a rule, the affinity of an antagonist, worked out from how it opposes an agonist) is 0.0158 nM.
Next, `CC(=O)N[C@H](CO)C(=O)NCCCC[C@@H](NC(=O)[C@H](Cc1ccc(O)cc1)N(C)C(=O)[C@H](CO)NC(=O)[C@@H](Cc1cccnc1)NC(=O)[C@@H](Cc1ccc(Cl)cc1)NC(=O)[C@@H](Cc1ccc2ccccc2c1)NC(C)=O)C(=O)N[C@@H](CC(C)C)C(=O)N[C@@H](CCCNC(=N)N)C(=O)N1CCC[C@H]1C(=O)N[C@H](C)C(N)=O` [Example 8, NAc-D2Nal^1 -D4ClPhe^2 -D3Pal^3 -Ser^4 -NMeTyr^5 -DLys(N-epsilon-DSer-Acetyl)^6 -Leu^7 -Arg^8 -Pro^9 -DAla^10 NH2] (Ac-[d2Nal][dPhe(4-Cl)][d3Pal]S[NMeY][dK]([dS-Ac])LRP[dA]-NH2): 0.00794 nM.
Take `CC(=O)N[C@H](Cc1ccc2ccccc2c1)C(=O)N[C@H](Cc1ccc(Cl)cc1)C(=O)N[C@H](Cc1cccnc1)C(=O)N[C@@H](CO)C(=O)N(C)[C@@H](Cc1ccc(O)cc1)C(=O)N[C@H](CCCCNC(=O)[C@@H](CO)NC(=O)CNC(=O)c1cccnc1)C(=O)N[C@@H](CC(C)C)C(=O)N[C@@H](CCCNC(=N)N)C(=O)N1CCC[C@H]1C(=O)N[C@H](C)C(N)=O` [Example 48k, NAc-D2Nal^1 -D4ClPhe^2 -D3Pal^3 -Ser^4 -NMeTyr^5 -DLys(N-epsilon-D-Ser-Gly-Nicotinyl)^6 -Leu^7 -Arg^8 -Pro^9 -DAla^10 NH2] (Ac-[d2Nal][dPhe(4-Cl)][d3Pal]S[NMeY][dK]([dS-Gly-Nicotinoyl])LRP[dA]-NH2): the Kb is 0.017 nM.
As to `CC(=O)N[C@H](Cc1ccc2ccccc2c1)C(=O)N[C@H](Cc1ccc(Cl)cc1)C(=O)N[C@H](Cc1cccnc1)C(=O)N[C@@H](CO)C(=O)N(C)[C@@H](Cc1ccc(O)cc1)C(=O)N[C@H](CCCCNC(=O)CNC(=O)c1cccnc1)C(=O)N[C@@H](CC(C)C)C(=O)N[C@@H](CCCNC(=N)N)C(=O)N1CCC[C@H]1C(=O)N[C@H](C)C(N)=O` [Example 10, NAc-D2Nal^1 -D4ClPhe^2 -D3Pal^3 -Ser^4 -NMeTyr^5 -DLys(N-epsilon-Gly-Nicotinyl)^6 -Leu^7 -Arg^8 -Pro^9 -DAla^10 NH2] (Ac-[d2Nal][dPhe(4-Cl)][d3Pal]S[NMeY][dK]([Gly-Nicotinoyl])LRP[dA]-NH2), the Kb is 0.00501 nM.
On to `CC(=O)N[C@H](Cc1ccc2ccccc2c1)C(=O)N[C@H](Cc1ccc(Cl)cc1)C(=O)N[C@H](Cc1cccnc1)C(=O)N[C@@H](CO)C(=O)N(C)[C@@H](Cc1ccc(O)cc1)C(=O)N[C@H](CCCCNC(=O)[C@@H](CO)NC(=O)c1ccnc2ccccc12)C(=O)N[C@@H](CC(C)C)C(=O)N[C@@H](CCCNC(=N)N)C(=O)N1CCC[C@H]1C(=O)N[C@H](C)C(N)=O` [Example 50e, NAc-D2Nal^1 -D4ClPhe^2 -D3Pal^3 -Ser^4 -NMeTyr^5 -DLys(N-epsilon-DSer-4-Quinolinyl)^6 -Leu^7 -Arg^8 -Pro^9 -DAla^10 NH2] (Ac-[d2Nal][dPhe(4-Cl)][d3Pal]S[NMeY][dK]([dS-Quinoline4carbonyl])LRP[dA]-NH2), for which the Kb was 0.0288 nM.
Turning to `CC(=O)N[C@H](Cc1ccc2ccccc2c1)C(=O)N[C@H](Cc1ccc(Cl)cc1)C(=O)N[C@H](Cc1cccnc1)C(=O)N[C@@H](CO)C(=O)N(C)[C@@H](Cc1ccc(O)cc1)C(=O)N[C@H](CCCCNC(=O)[C@@H](CO)NC(=O)C1=C[C@@H](O)[C@@H](O)[C@H](O)C1)C(=O)N[C@@H](CC(C)C)C(=O)N[C@@H](CCCNC(=N)N)C(=O)N1CCC[C@H]1C(=O)N[C@H](C)C(N)=O` [Example 11, NAc-D2Nal^1 -D4ClPhe^2 -D3Pal^3 -Ser^4 -NMeTyr^5 -DLys(N-epsilon-DSer-Shikimyl)^6 -Leu^7 -Arg^8 -Pro^9 -DAla^10 NH2] (Ac-[d2Nal][dPhe(4-Cl)][d3Pal]S[NMeY][dK]([dS-Shikimoyl])LRP[dA]-NH2), the Kb was 0.017 nM.
On to `CC(=O)N[C@H](Cc1ccc2ccccc2c1)C(=O)N[C@H](Cc1ccc(Cl)cc1)C(=O)N[C@H](Cc1cccnc1)C(=O)N[C@@H](CO)C(=O)N(C)[C@@H](Cc1ccc(O)cc1)C(=O)N[C@H](CCCCNC(=O)CNC(=O)c1ccccn1)C(=O)N[C@@H](CC(C)C)C(=O)N[C@@H](CCCNC(=N)N)C(=O)N1CCC[C@H]1C(=O)N[C@H](C)C(N)=O` [Example 48a, NAc-D2Nal^1 -D4ClPhe^2 -D3Pal^3 -Ser^4 -NMeTyr^5 -DLys(N-epsilon-Gly-Picolinyl)^6 -Leu^7 -Arg^8 -Pro^9 -DAla^10 NH2] (Ac-[d2Nal][dPhe(4-Cl)][d3Pal]S[NMeY][dK]([Gly-Picolinoyl])LRP[dA]-NH2), for which the antagonist equilibrium constant (Kb) is 0.00794 nM.
On to `CC(=O)N[C@H](Cc1ccc2ccccc2c1)C(=O)N[C@H](Cc1ccc(Cl)cc1)C(=O)N[C@H](Cc1cccnc1)C(=O)N[C@@H](CO)C(=O)N(C)[C@@H](Cc1ccc(O)cc1)C(=O)N[C@H](CCCNC(=O)CNC(=O)c1cccnc1)C(=O)N[C@@H](CC(C)C)C(=O)N[C@@H](CCCCNC(C)C)C(=O)N1CCC[C@H]1C(=O)N[C@H](C)C(N)=O` [Example 54, NAc-D2Nal^1 -D4ClPhe^2 -D3Pal^3 -Ser^4 -NMeTyr^5 -DOrn(N-epsilon-Gly-Nicotinyl)^6 -Leu^7 -Lys(N-epsilon-Isopropyl)^8 -Pro^9 -DAla^10 NH2] (Ac-[d2Nal][dPhe(4-Cl)][d3Pal]S[NMeY][dOrn]([Gly-Nicotinoyl])L[Lys(iPr)]P[dA]-NH2), for which the Kb was 0.0302 nM.
Consider `CC(=O)N[C@H](Cc1ccc2ccccc2c1)C(=O)N[C@H](Cc1ccc(Cl)cc1)C(=O)N[C@H](Cc1cccnc1)C(=O)N[C@@H](CO)C(=O)N(C)[C@@H](Cc1ccc(O)cc1)C(=O)N[C@H](CCCCNC(=O)CNC(=O)c1ccco1)C(=O)N[C@@H](CC(C)C)C(=O)N[C@@H](CCCNC(=N)N)C(=O)N1CCC[C@H]1C(=O)N[C@H](C)C(N)=O` [Example 18, NAc-D2Nal^1 -D4ClPhe^2 -D3Pal^3 -Ser^4 -NMeTyr^5 -DLys(N-epsilon-Gly-2Furoyl)^6 -Leu^7 -Arg^8 -Pro^9 -DAla^10 NH2] (Ac-[d2Nal][dPhe(4-Cl)][d3Pal]S[NMeY][dK]([Gly-2Furoyl])LRP[dA]-NH2), for which the Kb is 0.00309 nM.
The figure for `CC(=O)N[C@H](Cc1ccc2ccccc2c1)C(=O)N[C@H](Cc1ccc(Cl)cc1)C(=O)N[C@H](Cc1cccnc1)C(=O)N[C@@H](CO)C(=O)N(C)[C@@H](Cc1ccc(O)cc1)C(=O)N[C@H](CCCCNC(=O)[C@@H](CO)NC(=O)c1ccccn1)C(=O)N[C@@H](CC(C)C)C(=O)N[C@@H](CCCNC(=N)N)C(=O)N1CCC[C@H]1C(=O)N[C@H](C)C(N)=O` [Example 48b, NAc-D2Nal^1 -D4ClPhe^2 -D3Pal^3 -Ser^4 -NMeTyr^5 -DLys(N-epsilon-D-Ser-Picolinyl)^6 -Leu^7 -Arg^8 -Pro^9 -DAla^10 NH2] (Ac-[d2Nal][dPhe(4-Cl)][d3Pal]S[NMeY][dK]([dS-Picolinoyl])LRP[dA]-NH2) is 0.0372 nM.
With `CC(=O)N[C@H](Cc1ccc2ccccc2c1)C(=O)N[C@H](Cc1ccc(Cl)cc1)C(=O)N[C@H](Cc1cccnc1)C(=O)N[C@@H](CO)C(=O)N(C)[C@@H](Cc1ccc(O)cc1)C(=O)N[C@H](CCCCNC(=O)[C@@H](CO)NC(=O)CNC(=O)C1=C[C@@H](O)[C@@H](O)[C@H](O)C1)C(=O)N[C@@H](CC(C)C)C(=O)N[C@@H](CCCNC(=N)N)C(=O)N1CCC[C@H]1C(=O)N[C@H](C)C(N)=O` [Example 48j, NAc-D2Nal^1 -D4ClPhe^2 -D3Pal^3 -Ser^4 -NMeTyr^5 -DLys(N-epsilon-D-Ser-Gly-Shikimyl)^6 -Leu^7 -Arg^8 -Pro^9 -DAla^10 NH2] (Ac-[d2Nal][dPhe(4-Cl)][d3Pal]S[NMeY][dK]([dS-Gly-Shikimoyl])LRP[dA]-NH2), the Kb is 0.017 nM.
Consider `CC(=O)N[C@H](Cc1ccc2ccccc2c1)C(=O)N[C@H](Cc1ccc(Cl)cc1)C(=O)N[C@H](Cc1cccnc1)C(=O)N[C@@H](CO)C(=O)N(C)[C@@H](Cc1ccc(O)cc1)C(=O)N[C@H](CCCCNC(=O)CCCNC(=O)CNC(=O)c1ccco1)C(=O)N[C@@H](CC(C)C)C(=O)N[C@@H](CCCCNC(C)C)C(=O)N1CCC[C@H]1C(=O)N[C@H](C)C(N)=O` [Example 57e, NAc-D2Nal^1 -D4ClPhe^2 -D3Pal^3 -Ser^4 -NMeTyr^5 -DLys(N-epsilon-4-aminobutyryl-glycyl-furoyl)^6 -Leu^7 -Lys(Isp)^8 -Pro^9 -DAla^10 NH2] (Ac-[d2Nal][dPhe(4-Cl)][d3Pal]S[NMeY][dK]([GABA-Gly-2Furoyl])L[Lys(iPr)]P[dA]-NH2), for which the Kb was 0.012 nM.
For `CC(=O)N[C@H](Cc1ccc2ccccc2c1)C(=O)N[C@H](Cc1ccc(Cl)cc1)C(=O)N[C@H](Cc1cccnc1)C(=O)N[C@@H](CO)C(=O)N(C)[C@@H](Cc1ccc(O)cc1)C(=O)N[C@H](CCCCNC(=O)CNC(=O)CNC(=O)c1cccnc1)C(=O)N[C@@H](CC(C)C)C(=O)N[C@@H](CCCCNC(C)C)C(=O)N1CCC[C@H]1C(=O)N[C@H](C)C(N)=O` [Example 19c, NAc-D2Nal^1 -D4ClPhe^2 -D3Pal^3 -Ser^4 -NMeTyr^5 -DLys[N-epsilon-Gly-Gly-Nicotinyl]^6 -Leu^7 -Lys(N-epsilon-Isopropyl)^8 -Pro^9 -DAla^10 NH2] (Ac-[d2Nal][dPhe(4-Cl)][d3Pal]S[NMeY][dK]([Gly-Gly-Nicotinoyl])L[Lys(iPr)]P[dA]-NH2), the Kb was 0.00331 nM.
